Data set [1] addresses T1, recombinant HIV-1 RT L100I (Human immunodeficiency virus type 1 group M subtype B, UniProt P03366, L699I).
T1 construct: performed by recombinant HIV-1 RT:s with defined
Particulars: binding 90 min at 33° C. As to the method: (§1) (iii) Protocol for RT binding inhibition (BIC) assay: The study was performed in a modified DNA polymerase assay. The inhibitors were serially diluted in five steps, enzyme dilution was added and the enzyme/inhibitor mixtures were incubated for 30 minutes at 33° C. Aliquots of the enzyme/inhibitor mixture were transferred to each well of a microtiter plate containing either immobilised primer, or primer/template. The enzyme was allowed to bind to the immobilised polymer for 90 min at 33° C. The amount of RT used was standardised to an activity corresponding to 40-60 pg (3.3-5.0×10^−16 mol) reference HIV-1 RT per well. The plates were then washed to remove unbound enzyme whereupon the amount of bound enzyme was determined by addition of the appropriate reaction solution for polymerisation (i e a reaction solution devoid of primer for studies of primer binding and a reaction solution devoid of both primer and template for studies of binding to primed template). The polymerase reaction was allowed to proceed for 3 hours at 33° C., whereupon the reaction was terminated by a wash of the plate.
(§2) The capacity of the indicated substances to inhibit the binding to primer or to primed DNA template of a panel of recombinant HIV 1 subtype B RTs was studied according to “Protocol for RT binding inhibition (BIC) assay” (protocol (iii) above).

Data set [2] addresses T2, recombinant HIV-1 RT E478Q (Human immunodeficiency virus type 1 group M subtype B, UniProt P03366, E1077Q).
T2 construct: performed by recombinant HIV-1 RT:s with defined
Particulars: binding 90 min at 33° C. As to the method: as §1, §2

Data set [3] addresses T3, recombinant HIV-1 RT L100I/K103N (Human immunodeficiency virus type 1 group M subtype B, UniProt P03366, K702N/L699I).
T3 construct: performed by recombinant HIV-1 RT:s with defined
Put plainly: RT assay: inhibition of RNA dependent DNA polymerisation (modified Lenti RT assay). Format: biochemical. Particulars: enzyme/inhibitor preincubated 30 minutes at 33° C., BrdUTP 0.35 μM, odT22 0.03 ng per well, 3 hours, read-out: IC50 of indicated inhibitor in RT assay. Here is the method:
The flourimetric RT assay (Cavidi® Lenti RT activity kit), available from Cavidi Tech, Uppsala, Sweden, was used for the determination of RT activity. In short, poly(rA) covalently bound to the wells of a 96 well microtiter plate serves as template for the incorporation of 5-bromodeoxyuridine 5′-triphosphate (BrdUTP) during the reverse transcription step at 33° C. The amount of bromodeoxyuridine monophosphate (BrdUMP) incorporated into DNA is detected with an alkaline phosphatase (Ap) conjugated, anti-BrdU monoclonal antibody. An Ap substrate, 4-methylumbelliferyl phosphate, is finally used for fluorimetric product detection.
(i) Protocol for determination of inhibition of RNA dependent DNA polymerisation: The inhibition studies were performed in a modified Lenti RT assay. The inhibitors were serially diluted in five steps, whereupon enzyme dilution was added and the enzyme/inhibitor mixtures were incubated for 30 minutes at 33° C. The enzyme reaction was initiated by addition of 100 μl aliquots of the enzyme/inhibitor mixture to each well of a microtiter plate containing 100 μl RT reaction mixture per well. The polymerase reaction was allowed to proceed for 3 hours at 33° C., whereupon the reaction was terminated by a wash of the plate. […] The amount of RT used was standardised to an activity corresponding to 90-130 pg (7-10×10^−16 mol) reference HIV-1 RT per well […]

The target in data set [4] is T1, recombinant HIV-1 RT L100I. Type of data set: biochemical. The settings on record: second strand DNA synthesis, preincubation 30 minutes at 33° C., 3 hours, read-out: IC50 of indicated inhibitor in DNAp assay. The source says:
(§3) The flourimetric DNA-polymerase assay used is available from Cavidi Tech AB, Uppsala, Sweden. It is based on a short DNA primer analogous to a part of the tRNA^Lys3 sequence. The template is a single stranded deoxynucleotide template with part of the sequence complementary to the primer. The enzyme reaction is dependent on all four deoxynucleotide bases. The thymidine triphosphate is, however, replaced by BrdUTP. The amount of BrdUMP incorporated into DNA during the polymerase reaction is detected with an alkaline phosphatase (Ap) conjugated anti-BrdU monoclonal antibody. An Ap substrate, 4-methylumbelliferyl phosphate, is finally used for fluorimetric product detection.
(§4) (ii) Protocol for determination of inhibition of second strand synthesis on a variable DNA template: The inhibition studies were performed in a modified DNA polymerase assay. The inhibitors were serially diluted in five steps, enzyme dilution was added and the enzyme/inhibitor mixtures were incubated for 30 minutes at 33° C. The enzyme reaction was initiated by addition of 75 μl aliquots of the enzyme/inhibitor mixture to each well of a microtiter plate containing 75 μl DNA polymerase reaction mixture per well. The polymerase reaction was allowed to proceed for 3 hours at 33° C. whereupon the reaction was terminated by a wash of the plate. […] The amount of RT used was standardised to an activity corresponding to 40-60 pg (3.3-5.0×10^−16 mol) reference HIV-1 RT per well.
(§5) The capacity of the indicated substances to inhibit each enzyme in a panel of recombinant HIV 1 subtype B RTs was studied according to “Protocol for determination of inhibition of second strand synthesis on variable DNA template” (protocol (ii) above).

In data set [5] the target is T2, recombinant HIV-1 RT E478Q. Type of data set: biochemical. Particulars: second strand DNA synthesis, preincubation 30 minutes at 33° C., 3 hours, read-out: IC50 of indicated inhibitor in DNAp assay.
Excerpt: as §3, §4, §5

Setting [6] is: immobilised primer, read-out: Inhibition of binding to primer (BIC50).
The mark [7] stands for this setting: immobilised primer/template, read-out: Inhibition of binding to template/primer (BIC50).

pIC50: −log10 of the molar value. Read-outs that look alike come from different tables or passages of the source. Strand notation (5' to 3'): a small letter for the sugar, then the base; units joined by * are phosphorothioate-linked, units joined directly phosphodiester-linked; [ ] holds rarer units or linkages, { } end groups; capitals alone tell only the bases. r = 2'-OH (RNA)

Consider “substance 198: 15-mer RNA phosphorothioate with the base sequence of tRNALys3 anticodon stem and loop, SEQ ID NO:7 (rC*rA*rG*rA*rC*rU*rU*rU*rU*rA*rA*rU*rC*rU*rG) [reference compound]”, for which the pIC50 in data set [1] (setting [6]) is less than 6.00; in data set [1] (setting [7]) it was less than 6.00; in data set [2] (setting [6]) it was less than 6.00; in data set [2] (setting [7]), less than 6.00; in data set [3] it was 6.05; in data set [4], 6.66. For the same substance, the pIC50 in data set [5] was 6.00.

In the case of “substance 199: 35-mer RNA molecule having the sequence set out in SEQ ID NO:5; similar to SEQ ID NO:4 with some naturally occurring nucleotide derivatives (GCUCAGNCGGNAGAGCANCAGACUUUUAANCUGAN; RNA, backbone, methylation of C and the base at N not given here; naturally occurring modified nucleosides at n positions)”, the pIC50 in data set [1] (setting [6]) is 8.15; in data set [2] (setting [6]), 8.15; in data set [2] (setting [7]) it was 7.85; in data set [3], 7.92; in data set [4] it was 7.44; in data set [5], 7.47.
